Activity calls are given as the source filed them. The calls are words filed in the database; no cut-off is given here.
Tests used:
[1] = Protein binding in human plasma; type: ADME, cell-free; conditions: read-out: PPB
[2] = Antiproliferative activity against human MCL cells after 72 hrs by CellTiter-Glo assay; type: functional, cell-based
[3] = Therapeutic index, ratio of tumor growth inhibition of human TMD8 cells xenografted in NOD SCID mouse to body weight loss in NOD SCID mouse xenografted with human TMD8 cells
[4] = Oral bioavailability in Sprague-Dawley rat at 10 mg/kg by LC-ESI-TOF/MS or LC-ESI-MS/MS method; type: ADME, organism-based; conditions: in vivo
[5] = Oral bioavailability in Balb/c mouse at 10 mg/kg by LC-ESI-TOF/MS or LC-ESI-MS/MS method; type: ADME, organism-based; conditions: in vivo
[6] = Protein binding in dog plasma; type: ADME, cell-free, Canis lupus familiaris; conditions: read-out: PPB
[7] = Antiproliferative activity against human ALCL cells after 72 hrs by CellTiter-Glo assay; type: functional, cell-based
[8] = Metabolic stability in rat liver microsomes assessed as parent compound remaining at 1 uM after 30 mins by LC-ESI-TOF/MS method; type: ADME, microsome; conditions: read-out: Stability
[9] = Protein binding in rat plasma; type: ADME, cell-free; conditions: read-out: PPB
[10] = target: Serine/threonine-protein kinase 17A (Homo sapiens, UniProt Q9UEE5); assay: Inhibition of DRAK1 (unknown origin)
[11] = Antiproliferative activity against human B-PLL cells after 72 hrs by CellTiter-Glo assay; type: functional, cell-based
TMD8 [12] = assay: Effect on 4E-BP1 expression in human TMD8 cells after 2 hrs by immunoblot method; type: functional, cell-based
in vitro = conditions: human, Caco-2
Mus musculus [13] = assay: Toxicity in NOD SCID mouse xenografted with human TMD8 cells assessed as body weight loss at 1 to 10 mg/kg, po qd administered for 14 days measured twice a week during compound dosing; type: organism-based; conditions: in vivo, 336 h
physchem = conditions: octanol/water
[14] = Antiproliferative activity against human CML cells after 72 hrs by CellTiter-Glo assay; type: functional, cell-based
Mus musculus [15] = assay: Toxicity in NOD SCID mouse xenografted with human HBL1 cells assessed as body weight loss at 1 to 10 mg/kg, po qd administered for 12 days measured twice a week during compound dosing; type: organism-based; conditions: in vivo, 288 h
[16] = Antiproliferative activity against human Burkitt lymphoma cells after 72 hrs by CellTiter-Glo assay; type: functional, cell-based; conditions: Burkitt lymphoma cell
[17] = Therapeutic index, ratio of tumor growth inhibition of human MDA-MB-231 cells xenografted in NCr nu/nu mouse to body weight loss in NCr nu/nu mouse xenografted with human MDA-MB-231 cells
Homo sapiens = organism: Homo sapiens; assay: Effect on MAPK phosphorylation at Thr202/Tyr204 in human TMD8 cells at 0.01 to 10 uM after 2 hrs by immunoblot method; type: cell-based
[18] = target: T1, MAP kinase-interacting serine/threonine-protein kinase 1/2 (Homo sapiens, UniProt Q9HBH9+Q9BUB5); assay: Inhibition of MNK1/2 in human TMD8 cells assessed as decrease in IL-6 mRNA half life at 10 uM incubated for 24 hrs by TaqMan assay relative to control; type: cell-based
MDA-MB-231 [19] = assay: Growth inhibition of human MDA-MB-231 cells after 72 hrs by CellTiter-Glo assay; type: functional, cell-based
[20] = target: T1, MAP kinase-interacting serine/threonine-protein kinase 1/2; assay: Inhibition of MNK1/2 in human TMD8 cells assessed as decrease in IL-6 levels after 48 hrs by ELISA; type: cell-based
[21] = target: T1, MAP kinase-interacting serine/threonine-protein kinase 1/2; assay: Inhibition of MNK1/2 in human TMD8 cells assessed as decrease in eIF4E phosphorylation at Ser209 after 2 hrs by immunoblot method; type: cell-based
[22] = Antitumor activity against human HBL1 cells xenografted in NOD SCID mouse assessed as tumor growth inhibition at 10 mg/kg, po qd administered for 12 days relative to control; type: functional; conditions: 288 h, read-out: TGI
[23] = Metabolic stability in human liver microsomes assessed as parent compound remaining at 1 uM after 30 mins by LC-ESI-TOF/MS method; type: ADME, microsome; conditions: read-out: Stability
TMD8 [24] = assay: Antitumor activity against human TMD8 cells xenografted in NOD SCID mouse assessed as tumor growth inhibition at 1 mg/kg, po qd administered for 14 days relative to control; type: functional; conditions: 336 h, read-out: TGI
[25] = Therapeutic index, ratio of tumor growth inhibition of human HBL1 cells xenografted in NOD SCID mouse to body weight loss in NOD SCID mouse xenografted with human HBL1 cells
Mus musculus [26] = assay: In vivo inhibition of MNK1/2 in human TMD8 cells xenografted in NOD SCID mouse assessed as reduction in eIF4E phosphorylation at Ser209 administered as po qd for 14 days measured over 24 hrs post last dose by Western blot method; type: functional, organism-based
[27] = Antiproliferative activity against human T-ALL cells after 72 hrs by CellTiter-Glo assay; type: functional, cell-based
[28] = target: Eukaryotic translation initiation factor 4E-binding protein 1 (Homo sapiens) (UniProt Q13541); assay: Effect on 4E-BP1 phosphorylation at Thr37/46 in human TMD8 cells at 0.01 to 10 uM after 2 hrs by immunoblot method; type: cell-based
[29] = Protein binding in monkey plasma; type: ADME, cell-free, Macaca mulatta; conditions: rhesus monkey, read-out: PPB
[30] = target: T1, MAP kinase-interacting serine/threonine-protein kinase 1/2; assay: Inhibition of MNK1/2 in human TMD8 cells assessed as decrease in TNF-alpha mRNA half life at 10 uM incubated for 24 hrs by TaqMan assay relative to control; type: cell-based
[31] = target: T1, MAP kinase-interacting serine/threonine-protein kinase 1/2; assay: Inhibition of MNK1/2 in human TMD8 cells assessed as decrease in TNF-alpha levels after 48 hrs by ELISA; type: cell-based
[32] = Antiproliferative activity against human AML cells after 72 hrs by CellTiter-Glo assay; type: functional, cell-based
MDA-MB-231 [33] = assay: Antitumor activity against human MDA-MB-231 cells xenografted in NCr nu/nu mouse assessed as tumor growth inhibition at 1 to 10 mg/kg, po qd administered for 23 days relative to control; type: functional
[34] = Protein binding in mouse plasma; type: ADME, cell-free; conditions: read-out: PPB
[35] = Antitumor activity against human HBL1 cells xenografted in NOD SCID mouse assessed as tumor growth inhibition at 1 mg/kg, po qd administered for 12 days relative to control; type: functional; conditions: 288 h, read-out: TGI
[36] = Antiproliferative activity against human multiple myeloma cells after 72 hrs by CellTiter-Glo assay; type: functional, cell-based; conditions: Multiple myeloma cell
[37] = Antiproliferative activity against human B-ALL cells after 72 hrs by CellTiter-Glo assay; type: functional, cell-based
Mus musculus [38] = assay: Toxicity in NCr nu/nu mouse xenografted with human MDA-MB-231 cells assessed as body weight loss at 1 to 10 mg/kg, po qd administered for 23 days measured twice a week during compound dosing; type: organism-based; conditions: in vivo, 552 h
Mus musculus [39] = assay: In vivo inhibition of MNK1/2 in human TMD8 cells xenografted in NOD SCID mouse assessed as reduction in eIF4E phosphorylation at Ser209 at 1 mg/kg, po qd administered for 14 days measured over 8 hrs post last dose by Western blot method relative to control; type: functional
[40] = target: Dual specificity protein kinase CLK4 (Homo sapiens, UniProt Q9HAZ1); assay: Inhibition of CLK4 (unknown origin)
TMD8 [41] = assay: Antitumor activity against human TMD8 cells xenografted in NOD SCID mouse assessed as tumor growth inhibition at 10 mg/kg, po qd administered for 14 days relative to control; type: functional; conditions: 336 h, read-out: TGI
[42] = Metabolic stability in mouse liver microsomes assessed as parent compound remaining at 1 uM after 30 mins by LC-ESI-TOF/MS method; type: ADME, microsome; conditions: read-out: Stability
[43] = target: T1, MAP kinase-interacting serine/threonine-protein kinase 1/2; assay: Inhibition of MNK1/2 in human TMD8 cells assessed as decrease in IL-8 mRNA half life at 10 uM incubated for 24 hrs by TaqMan assay relative to control; type: cell-based
[44] = Oral bioavailability in Beagle dog at 3 mg/kg by LC-ESI-TOF/MS or LC-ESI-MS/MS method; type: ADME, organism-based, Canis lupus familiaris; conditions: in vivo
[45] = Oral bioavailability in cynomolgus monkey at 3 mg/kg by LC-ESI-TOF/MS or LC-ESI-MS/MS method; type: ADME, organism-based, Macaca fascicularis; conditions: in vivo
[46] = target: T1, MAP kinase-interacting serine/threonine-protein kinase 1/2; assay: Inhibition of MNK1/2 in human TMD8 cells assessed as decrease in IL-8 levels after 48 hrs by ELISA; type: cell-based
[47] = Antiproliferative activity against human DLBCL cells after 72 hrs by CellTiter-Glo assay; type: functional, cell-based

Eukaryotic translation initiation factor 4E-binding protein 1 (Homo sapiens), sequence (Q13541 whole entry): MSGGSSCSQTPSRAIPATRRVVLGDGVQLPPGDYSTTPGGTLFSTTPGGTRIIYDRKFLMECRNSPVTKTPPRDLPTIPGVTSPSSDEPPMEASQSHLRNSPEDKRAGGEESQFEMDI
Dual specificity protein kinase CLK4, sequence (Q9HAZ1 whole entry): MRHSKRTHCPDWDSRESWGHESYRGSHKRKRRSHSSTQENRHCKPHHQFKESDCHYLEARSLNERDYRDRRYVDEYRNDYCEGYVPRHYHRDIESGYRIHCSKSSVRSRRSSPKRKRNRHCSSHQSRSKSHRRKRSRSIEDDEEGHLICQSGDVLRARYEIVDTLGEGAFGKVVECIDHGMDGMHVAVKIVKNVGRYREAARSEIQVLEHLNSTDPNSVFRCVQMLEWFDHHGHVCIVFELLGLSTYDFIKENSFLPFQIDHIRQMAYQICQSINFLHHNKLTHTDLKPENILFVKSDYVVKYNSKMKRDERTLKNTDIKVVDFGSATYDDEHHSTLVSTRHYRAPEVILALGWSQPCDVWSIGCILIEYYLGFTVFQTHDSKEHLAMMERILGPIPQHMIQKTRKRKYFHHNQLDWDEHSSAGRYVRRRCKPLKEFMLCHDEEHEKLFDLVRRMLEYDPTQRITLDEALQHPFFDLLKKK
Serine/threonine-protein kinase 17A, sequence (Q9UEE5 whole entry): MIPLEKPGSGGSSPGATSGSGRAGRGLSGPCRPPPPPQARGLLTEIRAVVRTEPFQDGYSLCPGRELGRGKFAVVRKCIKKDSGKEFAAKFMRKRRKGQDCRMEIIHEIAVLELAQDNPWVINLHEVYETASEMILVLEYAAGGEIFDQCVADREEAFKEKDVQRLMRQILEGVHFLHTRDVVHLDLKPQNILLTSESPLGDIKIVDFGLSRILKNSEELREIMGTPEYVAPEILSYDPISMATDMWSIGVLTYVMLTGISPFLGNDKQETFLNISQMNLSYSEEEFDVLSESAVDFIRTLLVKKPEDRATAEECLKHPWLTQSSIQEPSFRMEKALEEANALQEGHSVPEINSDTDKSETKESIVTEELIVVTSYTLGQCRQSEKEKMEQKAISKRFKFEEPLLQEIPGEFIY

- fraction unbound [1]: 0.5
- bioavailability [4]: 85%
- bioavailability [5]: 79%
- fraction unbound [6]: 0.5
- remaining at 0.5 h, 1 µM [8]: 93%
- fraction unbound [9]: 0.5
- IC50 [10]: 0.131 µM
- Papp A→B at 2 h, 5 µM (in vitro): 7.1 ×10⁻⁶ cm/s
- logP (physchem): 2.7
- fold change (FC) [18]: 1.5 to 2
- inhibition [20]: Dose-dependent effect
- inhibition [21]: Dose-dependent effect
- remaining at 0.5 h, 1 µM [23]: 87%
- IC90 (Mus musculus [26]): 0.376 µM
- IC50 (Mus musculus [26]; Mus musculus, TMD8): 0.0158 µM
- Activity [28]: inactive
- fraction unbound [29]: 0.5
- fold change (FC) [30]: 1.5 to 2
- inhibition [31]: Dose-dependent effect
- fraction unbound [34]: 0.5
- IC50 [40]: 0.787 µM
- remaining at 0.5 h, 1 µM [42]: 90%
- fold change (FC) [43]: 1.5 to 2
- bioavailability [44]: > 100%
- bioavailability [45]: 24%
- inhibition [46]: Dose-dependent effect
SMILES: Cc1cc(Nc2cc(N)ncn2)c(=O)n2c1C(=O)NC21CCCCC1 [TOMIVOSERTIB]
- IC50 [2]: > 30 µM
- TI [3]: >=10
- IC50 [7]: > 30 µM
- IC50 [11]: > 30 µM
- Activity (TMD8 [12]): inactive
- Activity (Mus musculus [13]): Non-Toxic
- IC50 [14]: > 30 µM
- Activity (Mus musculus [15]): Non-Toxic
- IC50 [16]: > 30 µM
- TI [17]: >=10
- Activity (Homo sapiens): inactive
- growth inhibition (GI) (MDA-MB-231 [19]): inactive
- inhibition in vivo at 10 mg/kg [22]: 96%
- inhibition in vivo at 1 mg/kg (TMD8 [24]): 71%
- TI [25]: >=10
- IC50 [27]: > 30 µM
- IC50 [32]: > 30 µM
- TGI (MDA-MB-231 [33]): >100%
- inhibition in vivo at 1 mg/kg [35]: 66%
- IC50 [36]: < 10 µM
- IC50 [37]: > 30 µM
- Activity (Mus musculus [38]): Non-Toxic
- inhibition in vivo at 1 mg/kg (Mus musculus [39]): 80%
- inhibition in vivo at 10 mg/kg (TMD8 [41]): 75%
- IC50 [47]: < 10 µM
